In experiment [1] the test system is WRL68 cells. Put plainly: c-fos expression by northern blotting in serum-starved WRL68 cells. In kind it is cell-based. The conditions noted are these: treated 5 minutes to 2 hours, normalised to beta-actin. How it is done:
7. Detection of increased c-fos mRNA after treatment with leptin. C-fos mRNA may be detected by Northern, RT-PCR or “slot blot” analysis.
WRL68 cells were grown to confluence in their standard culture medium in the simultaneous presence of 10% foetal calf serum. At confluence the cells were transferred to serum-free medium for a minimum of 18 hours (lowering the serum concentration may also produce similar results). Serum-starved cells were then treated with leptin or with serum (as positive control for c-fos upregulation) for varying time periods from 5 minutes to 2 hours. RNA was extracted from the cells and subjected to gel electrophoresis and northern blotting. The blotted RNA was then probed with a c-fos labelled probe to analyze the expression of c-fos, the data being normalised by analysing the expression of beta-actin. […] Therefore WRL68 cells is expected to be suitable for identification of leptin mimetics. Other cell lines could also be identified via analysis of c-fos expression in response to leptin.

Experiment [2] deals with rat-1 fibroblasts over expressing insulin receptors. To be noted: Kroder et al. 1996; cited from earlier work.

With “Leptin: secreted hormone that acts as signal from adipose tissue to other organs to regulate weight and energy balance”, the c-fos expression entry in experiment [1] is “significantly enhanced”. The “insulin stimulated phosphorylation of the insulin receptor and insulin receptor substrate-I” value in experiment [2] is on record as “inhibition”.

These data come from patent US20020081602A1, “Method for the detection of compounds that modulate the effects of the obese (ob) protein” (SmithKline Beecham p.1.c., priority 1996, published 2002).
